Laboratory results from article PMC9369442, “Synthetic Peucedanocoumarin IV Prevents α-Synuclein Neurotoxicity in an Animal Model of Parkinson’s Disease” (International Journal of Molecular Sciences, 2022).

Columns and labels:
[1] = system: SH-SY5Y cells with Tet-Off conditional expression of β23; assay: Trypan blue exclusion cell viability assay, Tet-Off β23 expression; assay type: cell-based; settings: 1 μM, 24 h
Procedure: Figure 1 Peucedanocoumarin IV (PCiv) inhibits β23 aggregations and cytotoxicity in SH-SY5Y cells. (A) Scheme showing the detailed experimental steps in the organic synthesis of racemic PCiv and racemic PCiii (rac-PCiii, and rac-PCiv). Both PCiii and PCiv used in this study are racemic forms. (B) Trypan blue exclusion cell viability assessment in SH-SY5Y cells with Tet-Off-induced β23 expressions. β23 was expressed for 24 h using the Tet-off system. Further expression of β23 was halted by doxycycline (Dox) treatment with simultaneous treatment of the PCiii, PCiv, or their synthetic intermediate, trans-khellatone (t-khellatone, 1 μM 24 h). Cell viability was assessed 24 h after doxycycline treatment (n = 5 per group). (C) Synthetic PCiv’s protective effect on Tet-Off-expressed β23 toxicity in SH-SY5Y cells compared with peucedanocoumarin III (PCiii) determined by trypan blue exclusion assay. (D) The degradation of β23 monitored by Western blot at 37 h after doxycycline (200 ng/mL) treatment. The representative Western blot image of HA (β23) in SH-SY5Y cells treated with synthetic PCiii, synthetic PCiv (1 μM, 37 h), or DMSO as a vehicle. (E) Quantification of HA (β23) expression in SH-SY5Y cells from the indicated experimental groups in panel D (n = 3 experiments per group). (F) Representative immunofluorescence of steady state HA (β23) expression in SH-SY5Y cells expressing Tet-Off regulatable reporter mCherry and HA-tagged β23. HA-β23 was expressed for 24 h using the Tet-off system. Further expression of β23 was halted by Dox treatment in the presence of PCiii or PCiv (1 μM, 37 h). (G) Quantification of HA (β23) immunofluorescence signal in mCherry positive SH-SY5Y cells in each experimental group (n = 32 cells from three separate experiments per group). The data are expressed as means ± SEMs. * p < 0.05, ** p < 0.01, *** p < 0.001, and **** p < 0.0001, ANOVA test followed by Tukey’s post hoc analysis. Two-way ANOVA was used in panel C.
Human neuroblastoma SH-SY5Y cells (ATCC, Manassas, VA, USA) were grown in complete media containing DMEMs, 10% fetal bovine serum (vol/vol), and antibiotics (penicillin-streptomycin 100 U/mL, Thermo Fisher Scientific, Waltham, MA, USA). The atmospheric condition used to preserve the cells consisted of 5% CO2/95% air at 37 °C and maintained a humidified environment. X-tremeGENE HP transfection reagents (Roche, Basel, Switzerland) were used for transient transfection of DNA constructs (pCMV-tTA, TetP-β23, and pTet-dual2 [5]) following the manufacturer’s instructions.
SH-SY5Y cells were plated in 12-well plates at a density of 0.2 × 10^6 cells per well. Following transient transfection with the indicated constructs and subsequent treatment protocol, the cells were harvested by trypsinization, thereby yielding single-cell suspensions. The cells were washed twice with phosphate-buffered saline (PBS) and resuspended in serum-free DMEM. The resuspended cells were mixed with an equal volume of 0.4% trypan blue (w/v) and incubated for 2 min at room temperature. Live and dead cells were counted using a Countess II Automated Cell Counter (Life Technologies, Carlsbad, CA, USA) for assessing cell viability.

recombinant α-synuclein = target: T1, recombinant α-synuclein (Homo sapiens, UniProt P37840); assay: In vitro recombinant α-synuclein aggregation, Western blot; assay type: biochemical; settings: 100 μM, 37 °C, 3 or 5 days
T1 construct: made in house; host or cells: Escherichia coli BL21
Procedure: Figure 2 PCiv prevents α-synuclein aggregation in vitro and in cultured neurons with PFF treatment. (A) Representative Western blots showing the degree of recombinant α-synuclein (αSyn) aggregation in a test tube in the presence or absence of PCiv (100 μM) at the indicated incubation duration (phosphate-buffered saline [PBS], 37 °C for 3 or 5 days). Aggregation of α-synuclein was determined using α-synuclein antibody. (B) Quantification of the relative amount of α-synuclein aggregate in high molecular weight sizes in panel A (n = 3 per group). […] (D) Quantification of pS129-αSyn immunofluorescence signal intensities in MAP2-positive cortical neurons in each experimental group (n = 15 cells from three separate experiments). (E) Cell viability assessment in the indicated experimental groups was monitored by CCK-8 assay (n = 3 per group). The data are expressed as means ± SEMs. * p < 0.05, ** p < 0.01, *** p < 0.001, and **** p < 0.0001, ANOVA test followed by Tukey’s post hoc analysis. […]
(A) Representative Western blots showing the degree of recombinant α-synuclein (αSyn) aggregation in a test tube in the presence or absence of t-Khellatone, PCiii, and PCiv (100 μM) at 0 and 5 days of incubation (phosphate-buffered saline [PBS], 37 °C for 5 days). Aggregation of α-synuclein was determined using α- synuclein antibody. […]

For CC1(C)Oc2ccc3ccc(=O)oc3c2C(O)C1O (stereo not drawn) [trans-khellatone, reference compound], the “effect on β23-induced cytotoxicity” value [1] was “no effect” and the “aggregation of recombinant α-synuclein into high molecular weight species” value (recombinant α-synuclein) was “failed to prevent”.
